Experimental findings from patent US20240092791A1, “DIHYDROFUROPYRIDINE DERIVATIVES AS RHO-KINASE INHIBITORS” (CHIESI FARMACEUTICI S.P.A., priority 2020, published 2024) are described below.

SMILES strings stand for the structures.

In test [1] the target is Rho kinase 1 (ROCK1) (Homo sapiens, UniProt Q13464). Put plainly: In vitro inhibitory activity assay ROCK1 (ADP-Glo). It counts as biochemical. The conditions noted are these: ATP 200 μM, Cheng-Prusoff from IC50; read-out: ROCK 1 (Ki, range of activity). The procedure: (§1) The effectiveness of compounds of the present invention to inhibit Rho kinase activity can be determined in a 10 μl assay containing 40 mM Tris pH7.5, 20 mM MgCl2 0.1 mg/mL BSA, 50 μM DTT and 2.5 μM peptide substrate (Myelin Basic Protein) using an ADP-Glo kit (Promega). Compounds were dissolved in DMSO such that the final concentration of DMSO was 1% in the assay. All reactions/incubations are performed at 25° C. Compound (2 ul) and either Rho kinase 1 or 2 (4 μl) were mixed and incubated for 30 mins. Reactions were initiated by addition of ATP (4μ1) such that the final concentration of ATP in the assay was 200 μM. After a 1 hour incubation 10 μl of ADP-Glo Reagent was added and after a further 1 hour incubation 20 ul of Kinase Detection Buffer was added and the mixture incubated for a further 45 minutes. The luminescent signal was measured on a luminometer. […] Compounds were tested in dose-response format and the inhibition of kinase activity was calculated at each concentration of compound. To determine the IC50 (concentration of compound required to inhibit 50% of the enzyme activity) data were fit to a plot of % inhibition vs Log10 compound concentration using a sigmoidal fit with a variable slope and fixing the maximum to 100% and the minimum to 0%. To determine the Ki values the Cheng-Prusoff equation was utilized (Ki=IC50/(1+[S]/Km).

Test [2] concerns the target PKA (Homo sapiens, UniProt P17612). Put plainly: In vitro inhibitory activity assay for PKA (ADP-Glo), reported as selectivity ratio vs ROCK2. The format is biochemical. To be noted: Ki value for PKA divided by Ki value of ROCK2. The procedure:
The effectiveness of compounds of the present invention to inhibit PKA activity can be determined in a 10 μl assay containing 40 mM Tris pH7.5, 20 mM MgCl2 0.1 mg/ml BSA, 50 μM DTT and 260 μM peptide substrate (kemptide) using an ADP-Glo kit (Promega). Compounds were dissolved in DMSO such that the final concentration of DMSO was 1% in the assay. All reactions/incubations are performed at 25° C. Compound and PKA enzyme (6 μl) were mixed and incubated for 30 mins. Reactions were initiated by addition of ATP (4 μl ) such that the final concentration of ATP in the assay was 10 μM. After a 30 minute incubation 10 μl of ADP-Glo Reagent was added and after a further 1 hour incubation 20 μl of Kinase Detection Buffer was added and the mixture incubated for a further 45 minutes. The luminescent signal was measured on a luminometer. […] Compounds were tested in dose-response format and the inhibition of kinase activity was calculated at each concentration of compound. To determine the IC50 (concentration of compound required to inhibit 50% of the enzyme activity) data were fit to a plot of % inhibition vs Logio compound concentration using a sigmoidal fit with a variable slope and fixing the maximum to 100% and the minimum to 0%. To determine the Ki values the Cheng-Prusoff equation was utilized (Ki=IC50/(1+[S]/Km).
In vitro inhibitory activities for PKA were reported as selectivity ratio vs. ROCK-2.

Test [3] deals with Rho kinase 2 (ROCK2) (Homo sapiens, UniProt O75116). Briefly: In vitro inhibitory activity assay ROCK2 (ADP-Glo). It counts as biochemical. The conditions noted are these: ATP 200 μM, Cheng-Prusoff from IC50; read-out: ROCK2 (Ki, range of activity). The procedure:
as §1

For test [4], the system named is cch-evoked bronchoconstriction. Put plainly: Experimental bronchospasm (carbachol-induced bronchoconstriction, Konzett & Roessler). It counts as in vivo, Male CD Sprague Dawley rats. To be noted: iv, rat, 1 hour after administration, carbachol 80 μg/kg i.v., read-out: Inhibition % (±s.e. mean) of cch-evoked bronchoconstriction; for inhibition in vivo at 0.01 mg/kg: dose 10 μg/Kg intratracheal; for inhibition in vivo at 0.003 mg/kg: dose 3 μg/Kg intratracheal. On the procedure:
Male CD Sprague Dawley rats (220-250 g) were purchased from Charles River Laboratories Italy (Calco, Lecco). Prior to use animals were acclimated for at least 5 days 20 to the local vivarium conditions (room temperature: 20-24° C.; relative humidity: 40-70%), having free access to standard rat chow and softened tap water. All the procedures were performed in animal operating rooms according to ethical guidelines for the conduct of animal research (D. L.vo 116/92).
Rats were anaesthetized with a combination of anesthetics (Zoletil 20 mg/kg+Xylazine 5 mg/kg, ip) for the i.t. administration. A laryngoscope was moved forward into the mouth to visualize the trachea and guide the insertion of the tip of a custom-made small diameter cannula directly into the trachea and located 1-2 mm above the bifurcation.
In order to assess the residual inhibitory activity of test compounds 1 hour after their administration, rats were surgically prepared. Body temperature was kept constant at 37° C. by a heated blanket.
The trachea was cannulated and the lungs were ventilated artificially with a constant volume ventilator (rodent ventilator mod. 7025, Ugo Basile, Comerio, Varese, Italy) at a frequency of 80 strokes/min and at a tidal volume of 10 ml/kg. To avoid spontaneous breathing, the animals were injected intravenously (i.v.) with pancuronium bromide (2 mg/kg).
Bronchoconstriction was induced by the i.v. injection of carbachol (cch) 80 μg/kg. In control experiments, repeated injections of this dose produced reproducible short-lasting (1-2 min duration) bronchospasms. Bronchoconstriction, quantified as a reduction of tidal volume, was evaluated according to the method described by Konzett & Roessler (1). Systemic blood pressure and changes in airway resistance were monitored with a digital pressure transducer.
After stabilisation of artificial breathing and blood pressure, animals were injected (i.v.) with cch every 3 min, until 3 stable and reproducible basal responses were obtained. […] The effect of test compounds was 15 expressed as % inhibition of cch-evoked bronchoconstriction in time-matched, vehicle-treated, animals (controls).
Tested compounds were dissolved in dH2O and 1% Tween-80 or 0,001% HCl and further diluted to target concentrations. Tested compounds were instilled locally into the trachea in a volume of 125 μl.
All data are presented as mean±s.e.mean. The % inhibition of experimental bronchospasm was calculated comparing the drug-treated with the vehicle-treated control animals. Data analysis was performed using GraphPad Prism software.

For orientation: Ki means the dissociation constant of the complex between target and ligand, obtained from inhibition or displacement.

Chain of Rho kinase 1 (ROCK1) (Q13464 whole entry): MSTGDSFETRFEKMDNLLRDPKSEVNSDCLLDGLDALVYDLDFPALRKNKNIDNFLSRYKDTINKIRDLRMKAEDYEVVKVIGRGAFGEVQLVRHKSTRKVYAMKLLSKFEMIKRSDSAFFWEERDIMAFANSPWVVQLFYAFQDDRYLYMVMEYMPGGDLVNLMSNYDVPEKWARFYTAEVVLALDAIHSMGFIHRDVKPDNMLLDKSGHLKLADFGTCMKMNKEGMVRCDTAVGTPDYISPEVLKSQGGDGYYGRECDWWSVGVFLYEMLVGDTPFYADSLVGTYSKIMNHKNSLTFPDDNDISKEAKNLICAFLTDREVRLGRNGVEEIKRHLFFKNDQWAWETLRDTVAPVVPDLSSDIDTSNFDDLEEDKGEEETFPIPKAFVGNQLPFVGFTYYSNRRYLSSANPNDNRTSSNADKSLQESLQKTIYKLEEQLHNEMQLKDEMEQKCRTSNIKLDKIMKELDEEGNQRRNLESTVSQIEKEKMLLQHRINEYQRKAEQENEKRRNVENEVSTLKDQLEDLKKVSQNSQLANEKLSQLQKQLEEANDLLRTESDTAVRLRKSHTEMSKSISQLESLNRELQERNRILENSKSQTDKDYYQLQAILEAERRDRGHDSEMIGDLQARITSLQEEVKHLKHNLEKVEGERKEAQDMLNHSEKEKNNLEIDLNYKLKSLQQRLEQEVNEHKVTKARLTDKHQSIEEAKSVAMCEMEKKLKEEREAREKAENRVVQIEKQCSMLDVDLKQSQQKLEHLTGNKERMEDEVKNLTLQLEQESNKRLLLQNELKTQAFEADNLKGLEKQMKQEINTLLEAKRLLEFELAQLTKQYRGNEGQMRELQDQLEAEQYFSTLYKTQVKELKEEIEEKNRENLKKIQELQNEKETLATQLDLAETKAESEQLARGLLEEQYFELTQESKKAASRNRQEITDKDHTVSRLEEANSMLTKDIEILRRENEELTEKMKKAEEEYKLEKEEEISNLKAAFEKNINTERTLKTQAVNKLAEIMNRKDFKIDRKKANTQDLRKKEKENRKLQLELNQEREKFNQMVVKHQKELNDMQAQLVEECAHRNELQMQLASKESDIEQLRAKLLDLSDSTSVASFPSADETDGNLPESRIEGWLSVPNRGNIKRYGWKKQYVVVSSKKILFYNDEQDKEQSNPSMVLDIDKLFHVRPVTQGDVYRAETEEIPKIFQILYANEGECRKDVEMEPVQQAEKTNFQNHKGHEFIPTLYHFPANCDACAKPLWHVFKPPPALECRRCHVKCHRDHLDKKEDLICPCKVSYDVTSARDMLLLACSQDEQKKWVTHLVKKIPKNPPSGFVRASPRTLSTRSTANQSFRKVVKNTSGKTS
Chain of Rho kinase 2 (ROCK2) (O75116 whole entry): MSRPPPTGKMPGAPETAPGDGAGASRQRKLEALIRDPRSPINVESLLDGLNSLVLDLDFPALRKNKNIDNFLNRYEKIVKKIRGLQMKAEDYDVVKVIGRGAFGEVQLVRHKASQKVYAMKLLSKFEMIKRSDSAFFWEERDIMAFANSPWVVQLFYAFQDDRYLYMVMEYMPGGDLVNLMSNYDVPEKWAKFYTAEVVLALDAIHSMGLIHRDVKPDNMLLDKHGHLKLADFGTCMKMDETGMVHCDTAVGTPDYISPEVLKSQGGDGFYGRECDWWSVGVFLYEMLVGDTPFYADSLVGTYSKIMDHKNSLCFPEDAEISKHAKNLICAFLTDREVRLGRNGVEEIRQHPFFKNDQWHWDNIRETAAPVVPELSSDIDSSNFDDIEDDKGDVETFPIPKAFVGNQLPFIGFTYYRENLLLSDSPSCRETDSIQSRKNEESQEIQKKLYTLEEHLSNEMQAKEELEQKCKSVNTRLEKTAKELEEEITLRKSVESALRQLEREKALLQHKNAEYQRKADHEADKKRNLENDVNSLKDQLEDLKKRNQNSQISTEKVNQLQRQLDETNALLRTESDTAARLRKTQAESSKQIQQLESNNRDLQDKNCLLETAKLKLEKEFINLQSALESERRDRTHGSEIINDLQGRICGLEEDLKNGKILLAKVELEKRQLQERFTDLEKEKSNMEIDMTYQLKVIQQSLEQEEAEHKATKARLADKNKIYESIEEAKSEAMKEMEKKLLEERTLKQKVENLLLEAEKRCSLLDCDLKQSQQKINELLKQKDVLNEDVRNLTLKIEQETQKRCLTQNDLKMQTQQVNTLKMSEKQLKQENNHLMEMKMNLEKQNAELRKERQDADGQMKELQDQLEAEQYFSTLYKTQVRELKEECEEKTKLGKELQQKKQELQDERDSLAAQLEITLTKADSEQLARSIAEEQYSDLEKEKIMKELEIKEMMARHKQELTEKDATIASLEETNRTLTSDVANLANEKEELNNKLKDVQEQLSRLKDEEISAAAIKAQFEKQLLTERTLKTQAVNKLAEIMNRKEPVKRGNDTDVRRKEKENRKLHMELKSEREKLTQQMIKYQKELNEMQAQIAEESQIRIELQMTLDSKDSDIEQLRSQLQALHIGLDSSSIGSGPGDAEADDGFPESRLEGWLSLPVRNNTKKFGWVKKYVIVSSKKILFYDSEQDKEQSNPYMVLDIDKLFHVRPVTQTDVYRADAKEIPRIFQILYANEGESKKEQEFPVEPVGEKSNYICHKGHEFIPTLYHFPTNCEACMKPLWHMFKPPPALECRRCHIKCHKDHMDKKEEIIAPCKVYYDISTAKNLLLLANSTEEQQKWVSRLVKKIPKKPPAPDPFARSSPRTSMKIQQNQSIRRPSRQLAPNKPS

As for `CNCCOc1ccc(NC(=O)c2cccc(CNc3ncc(-c4ccnc(N)n4)c4c3CCO4)c2)nc1` [Example 73, 3-(((7-(2-aminopyrimidin-4-yl)-2,3-dihydrofuro[3,2-c]pyridin-4-yl)amino)methyl)-N-(5-(2-(methylamino)ethoxy)pyridin-2-yl)benzamide], the Ki in test [1] and in test [3] was no more than 3 nM throughout. For the same compound, in test [2], the “Ratio (PKA/ROCK2)” value is on record as “*** (ratio≥10)”. Besides, in test [4], the inhibition in vivo at 0.01 mg/kg was found to be 76.6 ± 6%.

Take `CNC(=O)c1cccc(CNc2ncc(-c3ccnc(N)n3)c3c2OCC3)c1` [Example B, 3-(((4-(2-aminopyrimidin-4-yl)-2,3-dihydrofuro[2,3-c]pyridin-7-yl)amino)methyl)-N-methylbenzamide, reference compound]: the inhibition constant Ki in test [1] and in test [3] was greater than 30 nM each time. Further, the “Ratio (PKA/ROCK2)” value in test [2] is given as “*** (ratio≥10)”.

With `CN1CCN(C)C(COc2ccc(NC(=O)c3cccc(CNc4ncc(-c5ccnc(N)n5)c5c4CCO5)c3)nc2)C1` (single isomer, unassigned) [Example 83, 3-(((7-(2-aminopyrimidin-4-yl)-2,3-dihydrofuro[3,2-c]pyridin-4-yl)amino)methyl)-N-(5-((1,4-dimethylpiperazin-2-yl)methoxy)pyridin-2-yl)benzamide], the inhibition constant (Ki) in test [1] and in test [3] was no more than 3 nM each time. In addition, the “Ratio (PKA/ROCK2)” value in test [2] is recorded as “*** (ratio≥10)”. In addition, the inhibition in vivo at 0.003 mg/kg in test [4] was determined as 53.3 ± 4.6%.

`CN(C)CCN(C)c1ccc(NC(=O)c2cccc(CNc3ncc(-c4ccnc(N)n4)c4c3CCO4)c2)nc1` [Example 75, 3-(((7-(2-aminopyrimidin-4-yl)-2,3-dihydrofuro[3,2-c]pyridin-4-yl)amino)methyl)-N-(5-((2-(dimethylamino)ethyl)(methyl)amino)pyridin-2-yl)benzamide]: the Ki in test [1] and in test [3] was no more than 3 nM each time. The “Ratio (PKA/ROCK2)” value in test [2] was “*** (ratio≥10)”.

For the compound `C[C@@H]1CNCCN1c1ccc(NC(=O)c2cccc(CNc3ncc(-c4ccnc(N)n4)c4c3CCO4)c2)nc1` [Example 69, (R)-3-(((7-(2-aminopyrimidin-4-yl)-2,3-dihydrofuro[3,2-c]pyridin-4-yl)amino)methyl)-N-(5-(2-methylpiperazin-1-yl)pyridin-2-yl)benzamide], the Ki in test [1] and in test [3] was no more than 3 nM each time. The “Ratio (PKA/ROCK2)” value in test [2] is on record as “*** (ratio≥10)”. In addition, the inhibition in vivo at 0.01 mg/kg in test [4] was 74.8 ± 7.8%.

For the compound `CN1C[C@H]2C[C@@H]1CN2c1ccc(NC(=O)c2cccc(CNc3ncc(-c4ccnc(N)n4)c4c3CCO4)c2)nc1` [Example 74], the inhibition constant (Ki) in test [1] and in test [3] was no more than 3 nM each time. Further, the “Ratio (PKA/ROCK2)” value in test [2] was “*** (ratio≥10)”. Moreover, the inhibition in vivo at 0.003 mg/kg in test [4] stood at 77.7 ± 4%.

For `Nc1nccc(-c2cnc(NCc3ccccc3)c3c2OCC3)n1` [Example C, 7-(2-Aminopyrimidin-4-yl)-N-benzyl-2,3-dihydrofuro[3,2-c]pyridin-4-amine, reference compound], the Ki in test [1] was greater than 30 nM; in test [3], 3 to 30 nM. Besides, the “Ratio (PKA/ROCK2)” value in test [2] was “* (ratio<5)”.

On to `C[C@@H]1CN[C@@H](C)CN1c1ccc(NC(=O)c2cccc(CNc3ncc(-c4ccnc(N)n4)c4c3CCO4)c2)nc1` [Example 67], for which the inhibitory constant (Ki) in test [1] and in test [3] was no more than 3 nM each time. Further, the “Ratio (PKA/ROCK2)” value in test [2] was “*** (ratio≥10)”.

Turning to `Nc1nccc(-c2cnc(NCc3cccc(C(=O)Nc4ccc(N5CCCNCC5)cn4)c3)c3c2OCC3)n1` [Example 72, N-(5-(1,4-diazepan-1-yl)pyridin-2-yl)-3-(((7-(2-aminopyrimidin-4-yl)-2,3-dihydrofuro[3,2-c]pyridin-4-yl)amino)methyl)benzamide], the Ki in test [1] and in test [3] was no more than 3 nM in each case. Further, the “Ratio (PKA/ROCK2)” value in test [2] was “*** (ratio≥10)”.

For `Nc1nccc(-c2cnc(NCc3cccc(C(=O)Nc4ccc(N5C[C@H]6C[C@@H]5CN6)cn4)c3)c3c2OCC3)n1` [Example 68, N-(5-((1R,4R)-2,5-diazabicyclo[2.2.1]heptan-2-yl)pyridin-2-yl)-3-(((7-(2-aminopyrimidin-4-yl)-2,3-dihydrofuro[3,2-c]pyridin-4-yl)amino)methyl)benzamide], the Ki in test [1] and in test [3] was no more than 3 nM each time. Moreover, the “Ratio (PKA/ROCK2)” value in test [2] is on record as “*** (ratio≥10)”.

As for `CNC(=O)c1cccc(CNc2ncc(-c3ccncn3)c3c2CCO3)c1` [Example A, N-Methyl-3-(((7-(pyrimidin-4-yl)-2,3-dihydrofuro[3,2-c]pyridin-4-yl)amino)methyl)benzamide, reference compound], the inhibitory constant (Ki) in test [1] and in test [3] was greater than 30 nM each time. The “Ratio (PKA/ROCK2)” value in test [2] is “** (5≤ratio<10)”.

Take `CN1CC[C@@H]1COc1ccc(NC(=O)c2cccc(CNc3ncc(-c4ccnc(N)n4)c4c3CCO4)c2)nc1` [Example 81, (R)-3-(((7-(2-aminopyrimidin-4-yl)-2,3-dihydrofuro[3,2-c]pyridin-4-yl)amino)methyl)-N-(5-((1-methylazetidin-2-yl)methoxy)pyridin-2-yl)benzamide]: the inhibition constant Ki in test [1] and in test [3] was no more than 3 nM in each case. In addition, the inhibition in vivo at 0.01 mg/kg in test [4] is 81.3 ± 7.9%.

As for `CN1C[C@@H]2C[C@H]1CN2c1ccc(NC(=O)c2cccc(CNc3ncc(-c4ccnc(N)n4)c4c3CCO4)c2)nc1` [Example 76, 3-(((7-(2-aminopyrimidin-4-yl)-2,3-dihydrofuro[3,2-c]pyridin-4-yl)amino)methyl)-N-(5-((1S,4S)-5-methyl-2,5-diazabicyclo[2.2.1]heptan-2-yl)pyridin-2-yl)benzamide], the Ki in test [1] and in test [3] was no more than 3 nM in each case. In test [2], the “Ratio (PKA/ROCK2)” value is given as “** (5≤ratio<10)”.

As for `CN1CCC(C(=O)N2CCN(c3ccc(NC(=O)c4cccc(CNc5ncc(-c6ccnc(N)n6)c6c5CCO6)c4)nc3)CC2)CC1` [Example 65, 3-(((7-(2-aminopyrimidin-4-yl)-2,3-dihydrofuro[3,2-c]pyridin-4-yl)amino)methyl)-N-(5-(4-(1-methylpiperidine-4-carbonyl)piperazin-1-yl)pyridin-2-yl)benzamide], the inhibition constant (Ki) in test [1] and in test [3] was no more than 3 nM throughout. Also, the “Ratio (PKA/ROCK2)” value in test [2] is “*** (ratio≥10)”.
